Experimental data taken from ChEMBL document CHEMBL1201862, “PubChem BioAssay data set” (2004).
Activity calls are given as the source filed them.

Legend:
[1] = target: Peroxisome proliferator-activated receptor gamma/Nuclear receptor corepressor 2 (Homo sapiens, UniProt P37231+Q9Y618); test: Counterscreen for NR2E3 inverse agonists: TR-FRET-based biochemical high throughput dose response assay to identify inverse agonists of the interaction between peroxisome proliferator-activated receptor gamma (PPARg) and nuclear receptor co-repressor 2 (NCOR2).; format: functional
[2] = target: Photoreceptor-specific nuclear receptor (Homo sapiens, UniProt Q9Y5X4); test: ligands suppressing NR2E3 nuclear receptor activity – biochemical, TR-FRET, dose response (AID 463256); format: functional
Sequence of Photoreceptor-specific nuclear receptor (Q9Y5X4 whole entry): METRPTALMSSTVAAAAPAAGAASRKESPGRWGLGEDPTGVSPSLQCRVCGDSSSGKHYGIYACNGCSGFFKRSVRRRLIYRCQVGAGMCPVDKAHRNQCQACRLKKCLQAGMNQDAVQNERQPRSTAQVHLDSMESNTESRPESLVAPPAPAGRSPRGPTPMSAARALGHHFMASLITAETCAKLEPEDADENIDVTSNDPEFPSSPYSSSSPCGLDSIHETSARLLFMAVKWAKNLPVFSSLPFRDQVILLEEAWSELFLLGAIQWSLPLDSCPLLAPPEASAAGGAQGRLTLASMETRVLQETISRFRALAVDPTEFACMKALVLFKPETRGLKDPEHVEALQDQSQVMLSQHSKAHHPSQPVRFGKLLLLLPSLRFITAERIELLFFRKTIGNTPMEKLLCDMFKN

[3] = target: Beta-galactosidase (Escherichia coli, UniProt Q8VNN2); test: Dose response counterscreen for EBI2 assay utilizing the enzyme, b-galactosidase.; format: functional
[4] = target: Prothrombin (Homo sapiens, UniProt P00734); test: Thrombin 1536 HTS Dose Response Confirmation. [Related pubchem assays: 1046 (Thrombin 1536 HTS; hits were confirmed in this assay)]; format: functional
[5] = tested on: Vero; test: viability of Vero cells under compound – cytotoxicity control for flavivirus capping enzyme inhibitors (AID 588742); format: functional; settings: Chlorocebus sabaeus
[6] = tested on: INS1; test: INS-1E survival protection against cytokine death – cell-based, luminescence, retest, dose response (AID 449756); format: functional; settings: Rattus norvegicus;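 further: cell death triggered by IL-1 beta plus TNF-alpha plus IFN-gamma mixture; protective hits raise ATP signal compared with cytokine alone wells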
[7] = target: Large T antigen (Simian virus 40, UniProt P03070); format: functional, Betapolyomavirus macacae;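 further: Confirmatory-stage PubChem screen for compounds that inhibit SV40 T antigen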
[8] = target: T1, Voltage-gated N-type calcium channel alpha-1B subunit/Amyloid beta A4 precursor protein-binding family A member 1 (Homo sapiens, UniProt Q00975+Q02410); format: protein assay
T1 sequence (Q00975 whole entry): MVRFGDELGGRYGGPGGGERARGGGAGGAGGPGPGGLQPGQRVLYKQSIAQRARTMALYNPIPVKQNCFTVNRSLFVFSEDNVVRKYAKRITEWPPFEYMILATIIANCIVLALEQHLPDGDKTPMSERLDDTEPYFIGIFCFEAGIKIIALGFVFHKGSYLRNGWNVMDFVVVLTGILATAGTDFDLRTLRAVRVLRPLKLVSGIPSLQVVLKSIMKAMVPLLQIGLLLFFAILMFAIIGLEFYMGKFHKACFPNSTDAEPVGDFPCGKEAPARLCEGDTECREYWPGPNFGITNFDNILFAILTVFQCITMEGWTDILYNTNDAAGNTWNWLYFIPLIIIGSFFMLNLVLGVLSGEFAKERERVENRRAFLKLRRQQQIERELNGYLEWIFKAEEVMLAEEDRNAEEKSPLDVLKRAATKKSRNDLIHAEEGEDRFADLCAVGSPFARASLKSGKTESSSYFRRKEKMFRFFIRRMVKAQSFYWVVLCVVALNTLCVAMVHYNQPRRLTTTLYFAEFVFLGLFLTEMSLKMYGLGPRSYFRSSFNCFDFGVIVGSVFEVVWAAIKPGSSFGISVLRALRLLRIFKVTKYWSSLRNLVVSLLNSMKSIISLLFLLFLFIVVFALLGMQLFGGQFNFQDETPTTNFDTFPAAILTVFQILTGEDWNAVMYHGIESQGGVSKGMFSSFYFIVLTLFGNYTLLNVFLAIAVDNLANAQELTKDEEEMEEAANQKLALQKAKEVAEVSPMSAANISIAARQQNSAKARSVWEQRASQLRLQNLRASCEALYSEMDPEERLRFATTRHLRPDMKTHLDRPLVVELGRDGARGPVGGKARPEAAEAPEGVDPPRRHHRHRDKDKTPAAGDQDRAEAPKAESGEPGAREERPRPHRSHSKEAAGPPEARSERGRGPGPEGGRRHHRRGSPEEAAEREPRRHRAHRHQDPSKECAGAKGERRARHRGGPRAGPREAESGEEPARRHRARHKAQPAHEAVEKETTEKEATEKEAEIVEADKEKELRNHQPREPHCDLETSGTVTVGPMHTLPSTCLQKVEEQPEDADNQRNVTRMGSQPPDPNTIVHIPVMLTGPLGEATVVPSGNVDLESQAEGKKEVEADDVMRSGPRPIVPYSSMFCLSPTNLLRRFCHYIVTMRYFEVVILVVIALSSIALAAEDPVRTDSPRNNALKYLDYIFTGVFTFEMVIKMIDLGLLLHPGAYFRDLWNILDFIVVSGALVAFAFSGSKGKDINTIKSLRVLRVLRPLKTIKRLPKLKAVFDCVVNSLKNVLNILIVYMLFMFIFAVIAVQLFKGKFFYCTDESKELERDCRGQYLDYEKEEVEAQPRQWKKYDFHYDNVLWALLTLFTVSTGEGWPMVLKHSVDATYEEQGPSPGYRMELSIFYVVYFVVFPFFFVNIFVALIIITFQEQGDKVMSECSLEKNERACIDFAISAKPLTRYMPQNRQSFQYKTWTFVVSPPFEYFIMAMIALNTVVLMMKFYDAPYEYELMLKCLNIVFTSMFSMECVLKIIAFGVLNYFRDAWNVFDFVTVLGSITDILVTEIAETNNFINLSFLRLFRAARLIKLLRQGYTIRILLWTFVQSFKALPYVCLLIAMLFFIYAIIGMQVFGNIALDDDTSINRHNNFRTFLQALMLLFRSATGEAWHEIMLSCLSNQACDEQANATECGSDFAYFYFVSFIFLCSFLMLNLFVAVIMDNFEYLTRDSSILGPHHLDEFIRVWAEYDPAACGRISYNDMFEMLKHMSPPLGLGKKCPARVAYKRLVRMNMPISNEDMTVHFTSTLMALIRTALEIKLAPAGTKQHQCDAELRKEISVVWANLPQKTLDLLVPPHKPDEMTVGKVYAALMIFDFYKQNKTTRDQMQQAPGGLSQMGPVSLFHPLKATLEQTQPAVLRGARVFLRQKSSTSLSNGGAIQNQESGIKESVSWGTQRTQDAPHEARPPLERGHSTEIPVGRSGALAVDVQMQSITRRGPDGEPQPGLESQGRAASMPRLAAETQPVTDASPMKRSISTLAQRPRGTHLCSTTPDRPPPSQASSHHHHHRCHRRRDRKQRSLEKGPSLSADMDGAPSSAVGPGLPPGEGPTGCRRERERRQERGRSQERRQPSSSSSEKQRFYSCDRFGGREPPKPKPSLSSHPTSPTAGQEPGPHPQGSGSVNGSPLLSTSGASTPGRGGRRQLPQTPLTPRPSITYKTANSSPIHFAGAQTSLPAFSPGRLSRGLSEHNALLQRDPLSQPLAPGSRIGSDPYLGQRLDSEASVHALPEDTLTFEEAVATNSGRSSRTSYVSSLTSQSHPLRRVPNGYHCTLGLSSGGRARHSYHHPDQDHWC
T1 sequence (Q02410 whole entry): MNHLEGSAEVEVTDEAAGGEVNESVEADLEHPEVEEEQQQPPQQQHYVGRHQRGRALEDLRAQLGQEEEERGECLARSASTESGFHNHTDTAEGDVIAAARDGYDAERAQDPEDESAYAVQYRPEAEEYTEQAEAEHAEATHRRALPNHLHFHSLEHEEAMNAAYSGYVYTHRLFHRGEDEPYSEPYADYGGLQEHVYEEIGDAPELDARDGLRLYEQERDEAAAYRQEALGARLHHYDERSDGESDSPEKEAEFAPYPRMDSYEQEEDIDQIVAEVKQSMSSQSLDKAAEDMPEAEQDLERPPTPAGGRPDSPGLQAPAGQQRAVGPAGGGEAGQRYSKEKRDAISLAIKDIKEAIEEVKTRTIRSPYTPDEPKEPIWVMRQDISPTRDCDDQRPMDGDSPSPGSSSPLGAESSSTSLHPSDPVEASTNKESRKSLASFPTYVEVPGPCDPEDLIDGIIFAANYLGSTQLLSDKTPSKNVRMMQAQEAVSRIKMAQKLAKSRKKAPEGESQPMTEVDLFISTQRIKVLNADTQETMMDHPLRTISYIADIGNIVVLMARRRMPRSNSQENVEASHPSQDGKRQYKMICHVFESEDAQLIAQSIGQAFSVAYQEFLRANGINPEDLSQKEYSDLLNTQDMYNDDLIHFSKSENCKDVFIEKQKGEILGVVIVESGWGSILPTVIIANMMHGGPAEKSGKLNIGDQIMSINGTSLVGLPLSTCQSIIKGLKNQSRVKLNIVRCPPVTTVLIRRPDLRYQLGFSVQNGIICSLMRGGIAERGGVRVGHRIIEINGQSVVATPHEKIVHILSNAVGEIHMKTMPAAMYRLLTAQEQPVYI

[9] = target: T1, Voltage-gated N-type calcium channel alpha-1B subunit/Amyloid beta A4 precursor protein-binding family A member 1; format: protein assay; remark: listed apart in the source
[10] = target: T2, Calpain-2 catalytic subunit (Sus scrofa, UniProt P43367); test: m-calpain protease blockers, concentration series – biochemical, fluorogenic peptide substrate, dose response (AID 1420); format: functional
T2 sequence (P43367 whole entry): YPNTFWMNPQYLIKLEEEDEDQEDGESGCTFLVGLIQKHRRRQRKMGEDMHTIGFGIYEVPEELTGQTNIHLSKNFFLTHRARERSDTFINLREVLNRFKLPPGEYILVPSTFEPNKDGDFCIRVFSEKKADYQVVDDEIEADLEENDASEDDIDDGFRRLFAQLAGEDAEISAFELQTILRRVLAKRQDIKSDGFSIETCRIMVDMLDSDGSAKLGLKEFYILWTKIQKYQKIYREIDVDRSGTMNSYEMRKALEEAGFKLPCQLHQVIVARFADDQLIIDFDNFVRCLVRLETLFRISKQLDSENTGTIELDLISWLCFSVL

[11] = target: Nonstructural protein 1 (Influenza A virus, UniProt Q194T2); format: functional, Influenza A virus (A/California/07/2009(H1N1))
Sequence of Nonstructural protein 1 (Q194T2 whole entry): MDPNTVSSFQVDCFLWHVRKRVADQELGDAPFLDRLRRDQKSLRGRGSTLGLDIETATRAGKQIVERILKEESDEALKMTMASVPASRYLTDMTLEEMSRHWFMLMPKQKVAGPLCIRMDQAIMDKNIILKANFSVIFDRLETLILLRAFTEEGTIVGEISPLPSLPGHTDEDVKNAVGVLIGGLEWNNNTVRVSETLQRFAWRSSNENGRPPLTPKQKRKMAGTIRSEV

[12] = target: T3, Polyadenylate-binding protein 1 (Homo sapiens, UniProt P11940); test: MLLE binding blockers, Cy5 peptide tracer – biochemical, fluorescence polarization, Cy5-PAM2 peptide, secondary, miRNA deadenylation inhibitor project, dose response (AID 602260); format: functional; settings: read-out: IC50_Mean
T3 sequence (P11940 whole entry, the tested form may be a part): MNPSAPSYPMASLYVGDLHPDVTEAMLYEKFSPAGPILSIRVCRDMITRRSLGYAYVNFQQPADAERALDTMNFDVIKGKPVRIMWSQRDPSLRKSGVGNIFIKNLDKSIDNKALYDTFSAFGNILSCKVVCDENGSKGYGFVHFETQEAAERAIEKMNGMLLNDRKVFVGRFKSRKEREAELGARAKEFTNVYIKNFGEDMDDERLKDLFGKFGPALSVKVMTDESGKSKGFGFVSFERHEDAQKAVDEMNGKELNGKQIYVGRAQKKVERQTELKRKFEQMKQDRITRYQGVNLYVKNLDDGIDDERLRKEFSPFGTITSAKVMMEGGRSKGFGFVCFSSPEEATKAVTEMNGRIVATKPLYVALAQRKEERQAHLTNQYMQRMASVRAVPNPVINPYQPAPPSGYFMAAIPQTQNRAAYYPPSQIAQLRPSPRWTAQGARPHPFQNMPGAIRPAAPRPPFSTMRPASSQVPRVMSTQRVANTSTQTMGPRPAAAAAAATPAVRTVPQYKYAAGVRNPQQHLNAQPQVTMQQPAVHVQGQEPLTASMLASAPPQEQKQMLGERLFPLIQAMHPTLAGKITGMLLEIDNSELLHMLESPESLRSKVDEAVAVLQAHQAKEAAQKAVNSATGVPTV

[13] = target: T3, Polyadenylate-binding protein 1; test: MLLE domain peptide-binding blockers, IC50 – biochemical, fluorescence polarization, FITC-PAM2 peptide, dose response (AID 602259); format: functional; settings: read-out: IC50_Mean
[14] = target: T4, RNA-binding protein pos-1 (Caenorhabditis elegans, UniProt G5EF15); test: disruptors of C. elegans POS-1 RNA interaction – biochemical, fluorescence polarization, dose response (AID 1964);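 further: purified POS-1 fused to maltose binding protein made in E. coli; potency of compounds blocking POS-1 binding to fluorescent RNA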
T4 sequence (G5EF15 whole entry): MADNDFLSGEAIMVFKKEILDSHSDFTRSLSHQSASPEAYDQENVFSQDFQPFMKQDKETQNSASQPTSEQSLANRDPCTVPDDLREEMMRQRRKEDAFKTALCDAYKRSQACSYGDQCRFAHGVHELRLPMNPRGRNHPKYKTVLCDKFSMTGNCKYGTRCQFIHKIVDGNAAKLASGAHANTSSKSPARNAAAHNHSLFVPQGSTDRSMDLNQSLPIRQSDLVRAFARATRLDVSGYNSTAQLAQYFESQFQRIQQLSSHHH

[15] = target: T5, Zinc finger protein mex-5 (Caenorhabditis elegans, UniProt Q9XUB2); test: potency of MEX-5 RNA-binding blockers – biochemical, C. elegans, fluorescence polarization, dose response (AID 1960)
T5 sequence (Q9XUB2 whole entry): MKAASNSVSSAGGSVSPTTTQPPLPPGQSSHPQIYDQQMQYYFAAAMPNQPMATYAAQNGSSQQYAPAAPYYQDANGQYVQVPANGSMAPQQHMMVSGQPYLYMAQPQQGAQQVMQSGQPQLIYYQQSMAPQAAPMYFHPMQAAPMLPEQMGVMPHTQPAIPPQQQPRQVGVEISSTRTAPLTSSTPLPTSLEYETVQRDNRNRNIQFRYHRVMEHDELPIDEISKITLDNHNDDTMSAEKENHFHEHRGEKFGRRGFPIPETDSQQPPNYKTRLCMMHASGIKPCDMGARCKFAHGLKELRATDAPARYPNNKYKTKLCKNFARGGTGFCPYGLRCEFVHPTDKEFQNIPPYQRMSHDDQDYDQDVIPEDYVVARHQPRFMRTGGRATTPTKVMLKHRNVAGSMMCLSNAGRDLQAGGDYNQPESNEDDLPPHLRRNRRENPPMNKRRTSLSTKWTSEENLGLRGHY

[16] = target: Genome polyprotein (dengue virus type 2, UniProt P29990); test: flavivirus cap methylation enzyme inhibition – biochemical, confirmation dose response, primary screen (AID 588689); format: functional
[17] = target: T6, SUMO-activating enzyme (Homo sapiens, UniProt Q9UBT2); test: blockers of UBC9-mediated SUMO conjugation – biochemical, AlphaScreen, SUMOylation inhibitor project, confirmation (AID 2018); format: functional
[18] = target: T6, SUMO-activating enzyme; test: blockers of SAE1/SAE2–UBC9 SUMO transfer – biochemical, HTRF, uHTS, primary screen (AID 2006); format: protein-complex assay
[19] = tested on: P388/ADR; test: cells; format: functional; settings: Mus musculus
[20] = tested on: SN12K1; test: cells; format: functional; settings: Homo sapiens
[21] = tested on: P388; test: cells; format: functional; settings: Mus musculus
[22] = target: DNA dC->dU-editing enzyme APOBEC-3G (Homo sapiens, UniProt Q9HC16); test: Dose Response confirmation of small molecule APOBEC3G DNA Deaminase Inhibitors via a fluorescence-based single-stranded DNA deaminase assay. [Related pubchem assays (depositor defined):AID493012, AID493028]; format: functional
Sequence of DNA dC->dU-editing enzyme APOBEC-3G (Q9HC16 whole entry): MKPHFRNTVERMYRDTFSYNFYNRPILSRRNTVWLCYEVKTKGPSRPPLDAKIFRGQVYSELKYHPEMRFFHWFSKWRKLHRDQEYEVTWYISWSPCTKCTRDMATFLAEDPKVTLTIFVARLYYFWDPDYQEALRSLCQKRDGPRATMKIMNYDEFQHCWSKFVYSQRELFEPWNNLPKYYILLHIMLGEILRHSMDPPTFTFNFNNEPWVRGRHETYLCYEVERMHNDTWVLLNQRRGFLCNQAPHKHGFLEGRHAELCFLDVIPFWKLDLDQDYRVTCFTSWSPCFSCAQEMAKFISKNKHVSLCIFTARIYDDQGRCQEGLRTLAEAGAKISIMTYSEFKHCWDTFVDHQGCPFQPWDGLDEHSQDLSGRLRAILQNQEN

[23] = tested on: HEK293; test: EBV LMP1 TES2 canonical NF-kB signalling blockers – cell-based, HEK293, luciferase, cherry-pick, dose response (AID 588343); format: functional; settings: Homo sapiens
[24] = growth inhibition of yeast DHODH-expressing 3D7 parasites – SYBR Green, dry powder samples, dose response (AID 1159570); format: functional, cell-based;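 further: parasite growth measured after 72 hours of compound exposure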
[25] = P. falciparum Dd2 growth inhibitors, dose response, SYBR Green, cherry-picked samples (AID 1159567); format: functional, cell-based
[26] = Dd2 malaria parasite growth inhibition potency – SYBR Green, dry powder samples, dose response (AID 1159566); format: functional, cell-based;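 further: potency for growth inhibition with lower SYBR green DNA signal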
[27] = growth inhibition of PfATP4-mutant resistant parasites – NITD609-resistant line, SYBR Green, dry powder, dose response (AID 1159571); format: functional, cell-based;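 further: parasites synchronized at ring stage by sorbitol before testing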

O=C(COc1ccc(Br)cc1)N1CCN(c2ncccn2)CC1
IC50 [1]: 8.99 µM (active)
IC50 [2]: 10.1 µM (not active)
IC50 [3]: > 80 µM (inactive)

Cc1c(Br)ccc(NC(=O)Cn2nc(-c3cccs3)ccc2=O)c1C
IC50 [1]: 7.73 µM (active)
IC50 [2]: 7.42 µM (active)

O=C(COC(=O)Cn1cnc2ccccc2c1=O)Nc1cc(Cl)ccc1[N+](=O)[O-]
IC50 [4]: 3.35 µM (active)

COc1ccc(S(=O)(=O)N(C(=O)c2ccco2)c2cc3sc(=O)oc3c3ccccc23)cc1
CC50 [5]: 27.7 µM (active)
AC50 [6]: 4.56 µM (active)

COc1ccc(-n2nc3c(N4CCC(C(=O)NCc5ccccc5C)CC4)nnc(C)c3c2C)cc1
IC50 [1]: 1.44 µM (active)
IC50 [2]: 2.01 µM (active)

CC(=O)N(c1ccc2oc(=O)sc2c1)S(=O)(=O)c1cccs1
IC50 [7]: 40.1 µM (active)

COCCn1c(SCC(=O)Nc2ccc(C(N)=O)cc2)nc2c3ccccc3nc-2c1O
IC50 [8]: 6.77 µM (active)
IC50 [9]: > 50 µM (inactive)

Cc1ccc(Nc2c([N+](=O)[O-])ccc3c2=NC2(CCCCC2)N=3)cc1
IC50 [10]: 1.58 µM (not active)
IC50 [11]: 17.4 µM (active)
IC50 [12]: > 66 µM (inactive)
IC50 [13]: > 66 µM (inactive)

COc1cc(NC(=O)CSc2nc(C3CC3)nc3ccccc23)cc(OC)c1
IC50 [1]: 5.56 µM (active)
IC50 [2]: 5.35 µM (active)

O=C1C([N+](=O)[O-])=C(O)c2cccc3cccc1c23
EC50 [14]: 12.6 µM (active)
EC50 [15]: 9.23 µM (active)
IC50 [8]: > 56.8 µM (not active)
IC50 [9]: 31.2 µM (active)

O=C1C(Cl)=CC(=Nc2ccc(O)cc2)C=C1Cl
CC50 [5]: 37.7 µM (active)
IC50 [16]: 7.02 µM (active)
IC50 [12]: > 66 µM (inactive)
IC50 [13]: > 66 µM (inactive)

C=CCNC(=O)/C(C#N)=C\c1cc(Cl)c(O)c(OCC)c1
IC50 [4]: > 50 µM (not active)

c1ccc(-c2csc(NNC3=NCCCCC3)n2)cc1
IC50 [7]: 61.1 µM (active)

COc1ccc(NC2CCCN(C(=O)c3ccc(OC)cc3OC)C2)cc1 (stereo unspecified)
IC50 [7]: 82.4 µM (active)

O=C(c1ccco1)n1nc(-c2cccnc2)nc1NCc1ccco1
IC50 [4]: 0.134 µM (active)

O=C(Nc1ccc2oc(-c3cccc4ccccc34)nc2c1)c1nnc[nH]1
IC50 [17]: 3.45 µM (active)
IC50 [8]: 2.92 µM (active)
IC50 [18]: 11.8 µM (active)
IC50 [9]: > 50 µM (inactive)

Cc1ccc(C)c(SCC(=O)OCC(=O)Nc2ccc(S(=O)(=O)N3CCOCC3)cc2)c1
IC50 [4]: 5.72 µM (active)

O=C1C(NS(=O)(=O)c2ccccc2)=C(N2CCN(c3ccc(F)cc3)CC2)C(=O)c2ccccc21
IC50 [11]: 18.1 µM (active)

CC(=O)N1CCN(c2ccc(NCc3ccc(-c4ccc(Br)cc4)o3)cc2)CC1
IC50 [11]: 41.1 µM (active)

S=P1(N2CCCCC2)Oc2ccc3ccccc3c2-c2c(ccc3ccccc23)O1
GI50 [19]: > 100 µM (inactive)
GI50 [20]: > 61.8 µM (inactive)
GI50 [21]: 48.4 µM (inactive)

C(=C/c1nc2ccccc2o1)/c1ccc2c(c1)OCO2
GI50 [19]: 3.99 µM (inactive)
GI50 [20]: 5.62 µM (inactive)
GI50 [21]: 3.52 µM (inactive)

O=S1(=O)CS(=O)(=O)OCCO1
GI50 [19]: 7.36 µM (inactive)
GI50 [20]: 28.6 µM (inactive)
GI50 [21]: 10.8 µM (inactive)

CCOC(=O)c1sc(N/N=C/c2ccccc2)nc1C
IC50 [22]: 40.4 µM (active)

COc1ccc(Cc2nnc(N/N=C/c3ccc(O)cc3)nc2O)cc1OC
IC50 [11]: 1.19 µM (active)
AC50 [23]: 4.42 µM (active)
AC50 [6]: 0.946 µM (active)

COc1cc(/C=N/NC(=O)c2ccc3c(c2)OCCO3)cc(Cl)c1O
IC50 [7]: 22.7 µM (active)

COc1ccc2c3c(n(C)c2c1)[C@@H](CO)N(C(=O)c1ccccc1)CC31CCN(C(=O)c2ccccc2)CC1
AC50 [24]: 2.28 µM (active)
AC50 [25]: 2.56 µM (active)
AC50 [26]: 1.04 µM (active)
AC50 [27]: 1.55 µM (active)
